According to US20040053822A1, “Inducing cellular immune responses to mage2/3 using peptide and nucleic acid compositions” (priority 2002, published 2004):
Residues, ends and D or L forms follow the SMILES beside them.

Tests used:
HLA-B*3501 = HLA-B*3501 (Homo sapiens, UniProt P01889, A329T/A93T/A95T/C349S/D201E/D98Y/E176V/E187L/E204Q/E69T/I218V/K202T/L119I/Q94N/R155S/R180L/S121R/S35A/S48A/T118I/V127L/V306I/V36M/Y140S/Y91F); assay: Purified HLA class I peptide binding assay, B*3501; conditions: binding affinity, HLA-B7 supermotif-bearing peptides
HLA-B*5401 = HLA-B*5401 (Homo sapiens, UniProt P01889, A329T/C349S/D138N/D201E/E176V/E187T/E204Q/E69G/I76V/K202T/L119W/R155S/R180L/S121T/S35A/S48A/V127L/V306I/V36M/Y140L); assay: Purified HLA class I peptide binding assay, B*5401; conditions: binding affinity, HLA-B7 supermotif-bearing peptides
HLA-B*5101 (B51) = HLA-B*5101 (B51) (Homo sapiens, UniProt P01889, A329T/A93T/A95T/C349S/D138N/D201E/D98Y/E187L/E204Q/E69T/G107R/I218V/K202T/L105A/L119W/N104I/Q94N/R106L/R155S/R180L/S101N/S121T/S35A/S48A/V306I/V36M/Y195H/Y91F); assay: Purified HLA class I peptide binding assay, B51; conditions: binding affinity, HLA-B7 supermotif-bearing peptides; read-out: B*5101 nM
HLA-B*0702 = HLA-B*0702 (Homo sapiens, UniProt P01889); assay: Purified HLA class I peptide binding assay, B*0702; conditions: binding affinity, HLA-B7 supermotif-bearing peptides
HLA-B*5301 = HLA-B*5301 (Homo sapiens, UniProt P01889, A329T/A93T/A95T/C349S/D201E/D98Y/E176V/E187L/E204Q/E69T/G107R/I218V/K202T/L105A/L119I/N104I/Q94N/R106L/R155S/R180L/S101N/S121R/S35A/S48A/T118I/V127L/V306I/V36M/Y140S/Y91F); assay: Purified HLA class I peptide binding assay, B*5301; conditions: binding affinity, HLA-B7 supermotif-bearing peptides

| Compound | IC50 (HLA-B*3501) [µM] | IC50 (HLA-B*5401) [µM] | IC50 (HLA-B*5101 (B51)) [µM] | IC50 (HLA-B*0702) [µM] | IC50 (HLA-B*5301) [µM] |
| --- | --- | --- | --- | --- | --- |
| CC[C@H](C)[C@H](NC(=O)[C@H](CC(C)C)NC(=O)[C@H](C)NC(=O)[C@H](CCCNC(=N)N)NC(=O)[C@@H]1CCCN1C(=O)[C@@H](N)Cc1ccccc1)C(=O)N[C@@H](CCC(=O)O)C(=O)N[C@H](C(=O)N[C@@H](CO)C(=O)N[C@@H](Cc1ccc(O)cc1)C(=O)N[C@H](C(=O)O)C(C)C)[C@@H](C)O | 4.5 | 0.0071 | 0.128 | 0.0063 | 7.75 |
| CC[C@H](C)[C@H](NC(=O)[C@H](CC(C)C)NC(=O)[C@H](CC(=O)O)NC(=O)[C@H](CCC(N)=O)NC(=O)[C@H](CCSC)NC(=O)[C@H](CC(C)C)NC(=O)[C@H](CC(C)C)NC(=O)[C@H](CCCCN)NC(=O)[C@H](CCCNC(=N)N)NC(=O)[C@@H]1CCCN1C(=O)[C@@H](N)Cc1ccccc1)C(=O)O | > 10 | 0.1 | 0.367 | 0.086 |  |
| CC[C@H](C)[C@H](NC(=O)[C@@H](NC(=O)[C@H](CC(C)C)NC(=O)[C@H](CC(C)C)NC(=O)CNC(=O)[C@@H](NC(=O)[C@H](CCCCN)NC(=O)[C@@H]1CCCN1C(=O)[C@@H](N)Cc1ccccc1)[C@@H](C)O)[C@@H](C)CC)C(=O)O | > 10 | 0.01 | 0.032 |  | 0.266 |
| CC[C@H](C)[C@H](NC(=O)[C@H](CC(C)C)NC(=O)[C@H](CC(C)C)NC(=O)CNC(=O)[C@@H](NC(=O)[C@H](CCCCN)NC(=O)[C@@H]1CCCN1C(=O)[C@@H](N)Cc1ccccc1)[C@@H](C)O)C(=O)O | > 10 | 0.037 | 0.016 | 0.134 | 3.32 |
| CC(C)C[C@H](NC(=O)[C@H](C)NC(=O)[C@H](CCCNC(=N)N)NC(=O)[C@@H]1CCCN1C(=O)[C@@H](N)Cc1ccccc1)C(=O)N[C@H](C(=O)N[C@@H](CCC(=O)O)C(=O)N[C@H](C(=O)N[C@@H](CO)C(=O)N[C@@H](Cc1ccc(O)cc1)C(=O)N[C@H](C(=O)O)C(C)C)[C@@H](C)O)C(C)C | 4.23 | 0.01 | 0.204 | 0.0042 | > 10 |
| CC[C@H](C)[C@H](NC(=O)[C@H](Cc1ccc(O)cc1)NC(=O)[C@H](CO)NC(=O)[C@@H](NC(=O)[C@H](CCC(=O)O)NC(=O)[C@@H](NC(=O)[C@H](CC(C)C)NC(=O)[C@H](C)NC(=O)[C@H](CCCNC(=N)N)NC(=O)[C@@H]1CCCN1C(=O)[C@@H](N)Cc1ccccc1)[C@@H](C)CC)[C@@H](C)O)C(=O)O (H-FPRALIETSYI-OH; N-terminus and C-terminus assumed) | 3.6 | 0.127 | 0.07 | 0.0074 | 0.465 |
| CC[C@H](C)[C@H](NC(=O)[C@H](CC(C)C)NC(=O)[C@H](CC(C)C)NC(=O)CNC(=O)[C@H](C)NC(=O)[C@H](CCCCN)NC(=O)[C@@H]1CCCN1C(=O)[C@@H](N)Cc1ccccc1)C(=O)N[C@H](C(=O)N[C@H](C(=O)O)C(C)C)[C@@H](C)CC (H-FPKAGLLIIV-OH; N-terminus and C-terminus assumed) | 0.878 | 0.0011 | 0.19 | 0.22 | 4.65 |
| CC[C@H](C)[C@H](NC(=O)[C@H](Cc1ccc(O)cc1)NC(=O)[C@H](CO)NC(=O)[C@@H](NC(=O)[C@H](CCC(=O)O)NC(=O)[C@@H](NC(=O)[C@H](CC(C)C)NC(=O)[C@H](C)NC(=O)[C@H](CCCNC(=N)N)NC(=O)[C@@H]1CCCN1C(=O)[C@@H](N)Cc1ccccc1)C(C)C)[C@@H](C)O)C(=O)O | 5.54 | 0.059 | 0.117 |  | 0.62 |
| CC[C@H](C)[C@H](NC(=O)[C@H](CC(C)C)NC(=O)[C@H](CC(C)C)NC(=O)CNC(=O)[C@H](C)NC(=O)[C@H](CCCCN)NC(=O)[C@@H]1CCCN1C(=O)[C@@H](N)Cc1ccccc1)C(=O)O | > 10 |  | 0.0082 |  | 0.775 |
| CC[C@H](C)[C@H](NC(=O)[C@@H](NC(=O)[C@@H](NC(=O)[C@H](CC(C)C)NC(=O)[C@H](CC(C)C)NC(=O)CNC(=O)[C@H](C)NC(=O)[C@H](CCCCN)NC(=O)[C@@H]1CCCN1C(=O)[C@@H](N)Cc1ccccc1)[C@@H](C)CC)[C@@H](C)CC)C(=O)O | 2.67 |  | 0.065 | 0.204 | 0.846 |

The remaining lines, values ahead:

| IC50 (HLA-B*3501) [µM] | IC50 (HLA-B*5401) [µM] | IC50 (HLA-B*5101 (B51)) [µM] | IC50 (HLA-B*0702) [µM] | IC50 (HLA-B*5301) [µM] | Compound |
| --- | --- | --- | --- | --- | --- |
| 0.077 | 0.0006 | 0.005 | 0.0034 |  | CC[C@H](C)[C@H](NC(=O)[C@@H](NC(=O)[C@H](Cc1ccc(O)cc1)NC(=O)[C@H](CC(C)C)NC(=O)[C@H](Cc1c[nH]cn1)NC(=O)CNC(=O)[C@@H](NC(=O)[C@@H]1CCCN1C(=O)[C@@H](N)Cc1ccccc1)[C@@H](C)CC)[C@@H](C)CC)C(=O)O |
| 0.022 | 0.0015 |  | 0.059 | 0.0085 | CC[C@H](C)[C@H](NC(=O)[C@@H]1CCCN1C(=O)[C@H](Cc1ccc(O)cc1)NC(=O)[C@H](CC(N)=O)NC(=O)[C@H](CCSC)NC(=O)[C@@H](NC(=O)[C@@H](NC(=O)[C@@H]1CCCN1C(=O)[C@@H](N)Cc1ccccc1)[C@@H](C)O)[C@@H](C)O)C(=O)O |
| 0.36 | 0.0014 |  | 0.0029 | 0.233 | CC[C@H](C)[C@H](NC(=O)[C@@H]1CCCN1C(=O)[C@@H]1CCCN1C(=O)[C@H](Cc1ccc(O)cc1)NC(=O)[C@H](CO)NC(=O)[C@@H](NC(=O)[C@H](Cc1c[nH]cn1)NC(=O)[C@@H]1CCCN1C(=O)[C@@H](N)Cc1ccccc1)[C@@H](C)CC)C(=O)O |
| > 10 | 0.4 |  |  | 3 | CC[C@H](C)[C@H](NC(=O)[C@H](CO)NC(=O)[C@H](CO)NC(=O)[C@H](C)NC(=O)CNC(=O)[C@H](CCC(N)=O)NC(=O)[C@@H]1CCCN1C(=O)[C@@H](N)Cc1ccccc1)C(=O)O |
|  | 0.0006 | 0.0042 | 0.0029 | 0.0044 | CC[C@H](C)[C@H](NC(=O)[C@@H](NC(=O)[C@H](Cc1ccc(O)cc1)NC(=O)[C@H](CC(C)C)NC(=O)[C@H](Cc1c[nH]cn1)NC(=O)[C@H](CO)NC(=O)[C@@H](NC(=O)[C@@H]1CCCN1C(=O)[C@@H](N)Cc1ccccc1)[C@@H](C)CC)[C@@H](C)CC)C(=O)O |
|  | 0.042 | > 10 | 0.22 |  | CSCC[C@H](NC(=O)[C@@H](NC(=O)[C@@H](NC(=O)[C@@H]1CCCN1C(=O)[C@@H](N)Cc1ccccc1)[C@@H](C)O)[C@@H](C)O)C(=O)N[C@@H](CC(N)=O)C(=O)N[C@@H](Cc1ccc(O)cc1)C(=O)N1CCC[C@H]1C(=O)N[C@@H](CC(C)C)C(=O)N[C@@H](Cc1c[nH]c2ccccc12)C(=O)O |
| 0.139 | 0.0029 | 0.0057 | 0.063 | 0.0085 | CC[C@H](C)[C@H](NC(=O)[C@H](Cc1ccccc1)NC(=O)[C@@H](NC(=O)[C@H](Cc1ccc(O)cc1)NC(=O)[C@H](CC(C)C)NC(=O)[C@H](Cc1c[nH]cn1)NC(=O)CNC(=O)[C@@H](NC(=O)[C@@H]1CCCN1C(=O)[C@@H](N)Cc1ccccc1)[C@@H](C)CC)[C@@H](C)CC)C(=O)O |
| 0.0045 | 0.003 | 0.423 | 0.0064 | 0.039 | CSCC[C@H](NC(=O)[C@@H](NC(=O)[C@@H](NC(=O)[C@@H]1CCCN1C(=O)[C@@H](N)Cc1ccccc1)[C@@H](C)O)[C@@H](C)O)C(=O)N[C@@H](CC(N)=O)C(=O)N[C@@H](Cc1ccc(O)cc1)C(=O)N1CCC[C@H]1C(=O)N[C@@H](CC(C)C)C(=O)O (H-FPTTMNYPL-OH; N-terminus and C-terminus assumed) |
|  | 0.0026 | 0.013 | 0.097 | 0.0049 | CC[C@H](C)[C@H](NC(=O)[C@H](CC(C)C)NC(=O)[C@@H](NC(=O)[C@H](Cc1ccc(O)cc1)NC(=O)[C@H](CC(C)C)NC(=O)[C@H](Cc1c[nH]cn1)NC(=O)[C@H](CO)NC(=O)[C@@H](NC(=O)[C@@H]1CCCN1C(=O)[C@@H](N)Cc1ccccc1)[C@@H](C)CC)[C@@H](C)CC)C(=O)O |
| 1.01 | 0.015 |  | 0.122 | 0.245 | CC[C@H](C)[C@H](NC(=O)[C@H](CO)NC(=O)[C@H](CCC(N)=O)NC(=O)[C@H](CO)NC(=O)[C@H](Cc1c[nH]c2ccccc12)NC(=O)[C@H](CC(C)C)NC(=O)[C@@H]1CCCN1C(=O)[C@@H](N)Cc1ccccc1)C(=O)O |
|  | 0.0038 | 0.177 | 0.0017 | 0.49 | CC[C@H](C)[C@H](NC(=O)[C@H](Cc1c[nH]cn1)NC(=O)[C@@H]1CCCN1C(=O)[C@@H](N)Cc1ccccc1)C(=O)N[C@@H](CO)C(=O)N[C@@H](Cc1ccc(O)cc1)C(=O)N1CCC[C@H]1C(=O)N1CCC[C@H]1C(=O)N[C@@H](CC(C)C)C(=O)O |
